From the NIST ThermoML archive (doi:10.1016/j.jct.2017.03.004)
Numbers after ± are expanded uncertainties.

Assay: activity coefficient (dimensionless); of the first substance listed, at infinite dilution; xn = mol fraction of the nth substance listed
Conditions: 101.33 kPa, Liquid, Chromatography, x1 = 0

SMILES | activity coefficient (318.15 K) | activity coefficient (328.15 K) | activity coefficient (338.15 K) | activity coefficient (348.15 K) | activity coefficient (358.15 K) | activity coefficient (368.15 K) | activity coefficient (298.15 K) | activity coefficient (308.15 K)
Cc1ccccc1C [1,2-dimethylbenzene] + N#C[N-]C#N.OCCC[n+]1ccccc1 | 11.1 ± 0.8 | 11.5 ± 0.8 | 11.9 ± 0.8 | 12.3 ± 0.8 | 12.7 ± 0.9 | 13 ± 0.9 |  | 
Cc1cccc(C)c1 [1,3-dimethylbenzene] + N#C[N-]C#N.OCCC[n+]1ccccc1 | 14.4 ± 1 | 14.8 ± 1 | 15.3 ± 1 | 15.7 ± 1.1 | 16.1 ± 1.1 | 16.5 ± 1.1 |  | 
Cc1ccc(C)cc1 [1,4-dimethylbenzene] + N#C[N-]C#N.OCCC[n+]1ccccc1 | 13.8 ± 0.9 | 14.3 ± 1 | 14.8 ± 1 | 15.3 ± 1 | 15.7 ± 1.1 | 16.2 ± 1.1 |  | 
C1COCCO1 [1,4-dioxane] + N#C[N-]C#N.OCCC[n+]1ccccc1 | 1.74 ± 0.12 | 1.86 ± 0.13 | 1.99 ± 0.14 | 2.12 ± 0.14 | 2.25 ± 0.15 | 2.38 ± 0.16 |  | 
C=CCCCCCCCC [1-decene] + N#C[N-]C#N.OCCC[n+]1ccccc1 | 887 ± 61 | 829 ± 57 | 777 ± 54 | 731 ± 50 | 691 ± 48 |  | 1030 ± 71 | 954 ± 66
C=CCCCCC [1-heptene] + N#C[N-]C#N.OCCC[n+]1ccccc1 | 200 ± 14 | 190 ± 13 | 182 ± 13 | 174 ± 12 | 167 ± 11 |  | 223 ± 15 | 211 ± 15
C#CCCCCC [1-heptyne] + N#C[N-]C#N.OCCC[n+]1ccccc1 | 37.4 ± 2.6 | 38.2 ± 2.6 | 39 ± 2.7 | 39.7 ± 2.7 | 40.4 ± 2.8 |  | 35.7 ± 2.4 | 36.5 ± 2.5
C#CCCCC [1-hexyne] + N#C[N-]C#N.OCCC[n+]1ccccc1 | 21.5 ± 1.5 | 22.5 ± 1.5 | 23.4 ± 1.6 | 24.3 ± 1.7 | 25.2 ± 1.7 |  | 19.8 ± 1.4 | 20.6 ± 1.4
CCC[N+](=O)[O-] [1-nitropropane] + N#C[N-]C#N.OCCC[n+]1ccccc1 | 2.96 ± 0.2 | 3.08 ± 0.21 | 3.18 ± 0.22 | 3.28 ± 0.22 | 3.37 ± 0.23 | 3.47 ± 0.24 |  | 
C#CCCCCCC [1-octyne] + N#C[N-]C#N.OCCC[n+]1ccccc1 | 69.4 ± 4.8 | 70.2 ± 4.8 | 71.1 ± 4.9 | 71.8 ± 4.9 | 72.6 ± 5 |  | 67.5 ± 4.6 | 68.5 ± 4.7
C=CCCC [1-pentene] + N#C[N-]C#N.OCCC[n+]1ccccc1 | 66.3 ± 4.5 | 63.1 ± 4.3 |  |  |  |  | 74.6 ± 5.1 | 70.2 ± 4.8
C#CCCC [1-pentyne] + N#C[N-]C#N.OCCC[n+]1ccccc1 | 12.1 ± 0.8 | 12.6 ± 0.9 | 13.1 ± 0.9 | 13.5 ± 0.9 | 14 ± 1 |  | 11.1 ± 0.8 | 11.6 ± 0.8
CC(C)CC(C)(C)C [2,2,4-trimethylpentane] + N#C[N-]C#N.OCCC[n+]1ccccc1 | 640 ± 44 | 579 ± 40 |  |  |  |  | 800 ± 55 | 714 ± 49
CCOC(C)(C)C [2-ethoxy-2-methylpropane] + N#C[N-]C#N.OCCC[n+]1ccccc1 | 85.6 ± 5.9 | 83.9 ± 5.8 | 82.4 ± 5.6 | 80.7 ± 5.5 | 79.1 ± 5.4 | 77.9 ± 5.3 |  | 
CCC(C)(C)OC [2-methoxy-2-methylbutane] + N#C[N-]C#N.OCCC[n+]1ccccc1 | 41.8 ± 2.9 | 42 ± 2.9 | 42.1 ± 2.9 | 42.3 ± 2.9 | 42.5 ± 2.9 | 42.6 ± 2.9 |  | 
COC(C)(C)C [2-methoxy-2-methylpropane] + N#C[N-]C#N.OCCC[n+]1ccccc1 | 25.1 ± 1.7 | 25.5 ± 1.7 | 25.9 ± 1.8 | 26.2 ± 1.8 | 26.6 ± 1.8 | 26.9 ± 1.8 |  | 
CC(C)CO [2-methyl-1-propanol] + N#C[N-]C#N.OCCC[n+]1ccccc1 | 3.31 ± 0.23 | 3.26 ± 0.22 | 3.2 ± 0.22 | 3.15 ± 0.21 | 3.11 ± 0.21 | 3.06 ± 0.21 |  | 
CC(C)(C)O [2-methylpropan-2-ol] + N#C[N-]C#N.OCCC[n+]1ccccc1 | 3.08 ± 0.21 | 3.08 ± 0.21 | 3.07 ± 0.21 | 3.07 ± 0.21 | 3.07 ± 0.21 | 3.05 ± 0.21 |  | 
CCC(C)CC [3-methylpentane] + N#C[N-]C#N.OCCC[n+]1ccccc1 | 286 ± 20 | 272 ± 19 |  |  |  |  | 321 ± 22 | 302 ± 21
C=C(C)c1ccccc1 [(1-methylethenyl)benzene] + N#C[N-]C#N.OCCC[n+]1ccccc1 | 11.3 ± 0.8 | 12 ± 0.8 | 12.7 ± 0.9 | 13.3 ± 0.9 | 14 ± 1 | 14.6 ± 1 |  | 
CC(C)=O [acetone] + N#C[N-]C#N.OCCC[n+]1ccccc1 | 1.87 ± 0.13 | 1.97 ± 0.13 | 2.05 ± 0.14 | 2.14 ± 0.15 | 2.23 ± 0.15 | 2.31 ± 0.16 |  | 
CC#N [acetonitrile] + N#C[N-]C#N.OCCC[n+]1ccccc1 | 1.24 ± 0.08 | 1.29 ± 0.08 | 1.34 ± 0.09 | 1.38 ± 0.09 | 1.43 ± 0.09 | 1.48 ± 0.1 |  | 
c1ccccc1 [benzene] + N#C[N-]C#N.OCCC[n+]1ccccc1 | 5.02 ± 0.34 | 5.18 ± 0.35 | 5.36 ± 0.37 | 5.53 ± 0.38 | 5.69 ± 0.39 | 5.85 ± 0.4 |  | 
CCCCO [butan-1-ol] + N#C[N-]C#N.OCCC[n+]1ccccc1 | 3.29 ± 0.22 | 3.23 ± 0.22 | 3.18 ± 0.22 | 3.13 ± 0.21 | 3.09 ± 0.21 | 3.05 ± 0.21 |  | 
CCC(C)O (configuration not stated) [butan-2-ol] + N#C[N-]C#N.OCCC[n+]1ccccc1 | 3.23 ± 0.22 | 3.18 ± 0.22 | 3.13 ± 0.21 | 3.09 ± 0.21 | 3.05 ± 0.21 | 3.02 ± 0.21 |  | 
CCCC=O [butanal] + N#C[N-]C#N.OCCC[n+]1ccccc1 | 4.09 ± 0.28 | 4.21 ± 0.29 | 4.3 ± 0.29 | 4.39 ± 0.3 | 4.49 ± 0.31 | 4.57 ± 0.31 |  | 
C1CCCCCC1 [cycloheptane] + N#C[N-]C#N.OCCC[n+]1ccccc1 | 139 ± 10 | 130 ± 9 | 122 ± 8 | 115 ± 8 | 109 ± 7 |  | 161 ± 11 | 149 ± 10
C1CCCCC1 [cyclohexane] + N#C[N-]C#N.OCCC[n+]1ccccc1 | 105 ± 7 | 99.8 ± 6.8 | 95 ± 6.5 | 90.7 ± 6.2 | 86.9 ± 6 |  | 118 ± 8 | 111 ± 8
C1=CCCCC1 [cyclohexene] + N#C[N-]C#N.OCCC[n+]1ccccc1 | 36.6 ± 2.5 | 35.8 ± 2.4 | 34.8 ± 2.4 | 34 ± 2.3 | 33.4 ± 2.3 |  | 38.7 ± 2.6 | 37.6 ± 2.6
